Source: patent publication US7488481B2, “Polypeptides derived from anti-HIV-1 gp120 antibodies that abrogate gp120 binding to CCR5” (priority 2003, dated 2009)
Ends that are not written are not given here. * marks the point of attachment. SO3H = O=S(=O)(O)*

Tests used:
[1] = tested on: interaction between gp120 and CCR5; test: Effectiveness of peptides based upon E51
ADA gp120 = test: Peptide competition of scFv association with ADA gp120 and CD4-Ig; assay type: binding, HIV-1; conditions: scFv of sulfated antibodies
Method: Radiolabeled single-chain antibody constructs (scFv) were incubated with radiolabeled gp120 of the ADA isolate in the presence and absence of soluble CD4. […] Ratios of gp120 precipitated in the presence and absence of soluble CD4 were calculated by densitometry. Radiolabeled scFv was incubated with ADA gp120 and CD4-Ig in the presence of peptide buffer (buffer only), an unsulfated peptide derived from the first 22 residues of the CCR5 amino-terminus (c22), a peptide derived from the first 22 residues of the CCR5 amino-terminus in which tyrosines 10 and 14 are sulfated (s22), or a peptide derived from residues 7-28 of the C5a receptor sulfated at the tyrosines corresponding to residues 11 and 14 of the C5a receptor (c5aR-s22).

[2] = tested on: association of gp120 with CCR5; conditions: peptides previously characterized; cited from earlier work

| Substance | effectiveness compared with the longer sequence SEQ ID NO:4 [1] | effect of peptide on association of scFv with ADA gp120 (ADA gp120) | effect of peptide on the association of gp120 with CCR5 [2] |
| --- | --- | --- | --- |
| GDYADYDGGYYYDMD (listed as Homo sapiens) [SEQ ID NO:3, shorter peptide based upon E51] | just as effective as the longer sequence |  |  |
| c5aR-s22: peptide from residues 7-28 of the C5a receptor sulfated at tyrosines 11 and 14 |  | very modest inhibition | did not have a noticeable effect |
| c22: unsulfated peptide derived from the first 22 residues of the CCR5 amino-terminus (MDYQVSSPIYDINYYTSEPCQK; UniProt P51681 1-22, looked up, fragment) |  | no significant effect |  |
| s22: peptide from the first 22 residues of the CCR5 amino-terminus in which tyrosines 10 and 14 are sulfated (MDYQVSSPIY(SO3H)DINY(SO3H)YTSEPCQK) |  | inhibited |  |
